# Results published in publication PMC2610413 (Bioorganic & medicinal chemistry letters, 2008).
# How the values were obtained:
# [1] = target: Tel-wild-type Bmx transformed Ba/F3 cells (Homo sapiens, UniProt P51813); assay: Cytotoxicity assay, Tel-wild-type Bmx transformed Ba/F3 cells; assay type: cell-based; conditions: cellular assay
# Bmx = target: T1, Bmx (Homo sapiens, UniProt P51813); assay: Biochemical enzymatic kinase assay, Bmx
# T1 sequence (P51813 1-675): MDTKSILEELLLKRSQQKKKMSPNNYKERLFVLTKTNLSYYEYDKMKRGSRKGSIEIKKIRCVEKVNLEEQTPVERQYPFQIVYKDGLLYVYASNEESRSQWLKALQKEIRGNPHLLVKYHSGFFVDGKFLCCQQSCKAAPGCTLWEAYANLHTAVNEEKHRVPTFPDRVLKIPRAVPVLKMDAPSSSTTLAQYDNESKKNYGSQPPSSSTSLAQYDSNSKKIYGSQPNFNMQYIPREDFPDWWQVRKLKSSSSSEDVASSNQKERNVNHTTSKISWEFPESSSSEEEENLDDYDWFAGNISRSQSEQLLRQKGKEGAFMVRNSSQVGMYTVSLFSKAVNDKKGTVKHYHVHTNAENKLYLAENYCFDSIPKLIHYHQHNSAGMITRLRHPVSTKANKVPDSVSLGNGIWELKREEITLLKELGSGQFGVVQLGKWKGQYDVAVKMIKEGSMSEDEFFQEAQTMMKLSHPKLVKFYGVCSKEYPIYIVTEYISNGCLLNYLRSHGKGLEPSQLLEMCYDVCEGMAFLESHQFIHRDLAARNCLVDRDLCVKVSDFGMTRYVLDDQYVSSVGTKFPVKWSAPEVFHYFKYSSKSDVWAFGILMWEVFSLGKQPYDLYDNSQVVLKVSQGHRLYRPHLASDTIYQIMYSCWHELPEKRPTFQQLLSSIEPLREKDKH
# Bmx kinase domain = Bmx kinase domain (Homo sapiens, UniProt P51813); assay: Mass spectrometry of covalent modification of recombinant Bmx kinase domain; assay type: binding
# full-length Flag-Bmx = target: T2, full-length Flag-Bmx (Homo sapiens, UniProt P51813); conditions: 10 μM; immunoprecipitated Flag-Bmx pre-incubated with drug at 4°C for 2 hrs
# T2 sequence (P51813 1-675): T1 sequence (P51813 1-675)
# EGFR (T790M) = conditions: cited from earlier work
# Blk = Blk (Homo sapiens, UniProt P51451); assay: Biochemical enzymatic kinase assay, Blk
# [2] = cited from earlier work
# [3] = test system: Tel-tyrosine kinase (Blk) transformed Ba/F3 cells; assay: Cytotoxicity assay, Tel-Blk transformed Ba/F3 cells; conditions: cellular assay
# Chain of Tel-wild-type Bmx transformed Ba/F3 cells (P41212 1-336 partner, one chain of several): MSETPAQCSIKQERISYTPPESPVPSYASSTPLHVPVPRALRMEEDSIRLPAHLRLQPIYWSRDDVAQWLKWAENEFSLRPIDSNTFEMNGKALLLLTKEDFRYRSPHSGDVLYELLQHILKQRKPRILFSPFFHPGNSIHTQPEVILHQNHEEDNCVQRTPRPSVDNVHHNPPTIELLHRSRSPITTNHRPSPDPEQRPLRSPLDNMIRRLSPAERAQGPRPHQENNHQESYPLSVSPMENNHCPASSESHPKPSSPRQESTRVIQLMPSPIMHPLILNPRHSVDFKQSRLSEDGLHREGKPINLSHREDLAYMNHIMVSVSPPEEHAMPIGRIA
# Chain of Blk (P51451 whole entry, species assumed): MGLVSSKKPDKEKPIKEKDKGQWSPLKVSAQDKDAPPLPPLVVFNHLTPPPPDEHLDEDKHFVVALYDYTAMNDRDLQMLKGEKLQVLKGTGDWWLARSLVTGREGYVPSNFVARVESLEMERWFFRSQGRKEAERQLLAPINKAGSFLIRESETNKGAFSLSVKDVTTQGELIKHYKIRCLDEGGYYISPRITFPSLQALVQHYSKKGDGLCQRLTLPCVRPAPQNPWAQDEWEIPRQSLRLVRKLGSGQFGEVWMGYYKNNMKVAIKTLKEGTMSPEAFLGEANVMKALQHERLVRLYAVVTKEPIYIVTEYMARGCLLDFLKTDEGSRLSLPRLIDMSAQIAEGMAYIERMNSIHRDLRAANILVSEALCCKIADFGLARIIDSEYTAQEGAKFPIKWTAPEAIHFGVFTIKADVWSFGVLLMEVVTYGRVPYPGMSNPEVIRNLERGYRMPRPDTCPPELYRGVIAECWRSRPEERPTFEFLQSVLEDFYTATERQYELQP
smiles,measurement,setting,value
C=CC(=O)Nc1ccc2ncnc(Nc3cccc(Br)c3)c2c1 [PD168393],inhibitory activity against Bmx,[1],only moderate potency
same,inhibitory activity against Bmx,Bmx,only moderate potency
same,site of modification,"Bmx kinase domain; chymotryptic peptide ISNGCLL, tandem MS",modification of cysteine 496
same,mass increase of Bmx kinase domain after incubation with inhibitor,Bmx kinase domain; consistent with covalent addition of a single inhibitor molecule,369 Da
C#Cc1cccc(Nc2ncnc3cc(OCCOC)c(OCCOC)cc23)c1 [erlotinib],in vitro autophosphorylation of Bmx (32P incorporation),full-length Flag-Bmx,not affected
CCOc1cc2ncc(C#N)c(Nc3ccc(F)c(Cl)c3)c2cc1NC(=O)/C=C/CN(C)C [EKB-569],inhibition of EGFR (T790M),EGFR (T790M),strongly inhibit
C=CC(=O)Nc1cc2c(Nc3ccc(F)c(Cl)c3)ncnc2cc1OCCCN1CCOCC1 [CI-1033],inhibitory activity against Blk,Blk,potent inhibitory activity
same,toxicity in clinical phase II study,[2],severe toxicity
same,inhibitory activity against Blk,[3],potent inhibitory activity
